Legend:
[1] = biological target: T1, Probable G-protein coupled receptor 139 (Homo sapiens) (UniProt Q6DWJ6); experiment: Agonist activity at human GPR139 expressed in CHO-K1 cells assessed as increase in calcium flux by calcium 5 dye based FLIPR assay relative to JNJ63533054; format: functional, cell-based
T1 sequence (whole entry): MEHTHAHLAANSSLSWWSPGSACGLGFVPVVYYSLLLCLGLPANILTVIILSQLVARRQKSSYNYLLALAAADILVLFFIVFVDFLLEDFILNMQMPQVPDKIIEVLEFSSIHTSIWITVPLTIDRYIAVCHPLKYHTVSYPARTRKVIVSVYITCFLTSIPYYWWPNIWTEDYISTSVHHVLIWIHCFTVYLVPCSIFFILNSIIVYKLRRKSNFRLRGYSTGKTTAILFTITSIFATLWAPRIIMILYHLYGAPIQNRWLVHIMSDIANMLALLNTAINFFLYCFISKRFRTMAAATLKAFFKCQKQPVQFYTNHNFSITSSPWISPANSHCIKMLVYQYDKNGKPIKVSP

[2] = biological target: T2, Probable G-protein coupled receptor 139 (Homo sapiens, UniProt Q6DWJ6); experiment: Agonist activity at human GPR139 expressed in CHO-K1 cells assessed as increase in calcium flux by calcium 5 dye based FLIPR assay; format: functional, cell-based
T2 sequence (Q6DWJ6 whole entry): T1 sequence (whole entry)

[3] = biological target: T3, Probable G-protein coupled receptor 139 (Rattus norvegicus) (UniProt P0C0W8); experiment: Agonist activity at rat GPR139 expressed in CHO-K1 cells assessed as increase in calcium flux by calcium 5 dye based FLIPR assay relative to JNJ63533054; format: cell-based
T3 sequence (whole entry): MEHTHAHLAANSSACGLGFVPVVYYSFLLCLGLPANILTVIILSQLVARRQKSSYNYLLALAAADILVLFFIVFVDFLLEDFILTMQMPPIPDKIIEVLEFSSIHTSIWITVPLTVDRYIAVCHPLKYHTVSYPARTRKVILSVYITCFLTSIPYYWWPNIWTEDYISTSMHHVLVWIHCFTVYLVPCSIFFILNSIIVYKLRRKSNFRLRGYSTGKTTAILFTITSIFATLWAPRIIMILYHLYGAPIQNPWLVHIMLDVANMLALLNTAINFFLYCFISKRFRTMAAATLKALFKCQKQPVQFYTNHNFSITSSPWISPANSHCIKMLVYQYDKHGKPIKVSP

[4] = biological target: T4, Probable G-protein coupled receptor 139 (Rattus norvegicus, UniProt P0C0W8); experiment: Agonist activity at rat GPR139 expressed in CHO-K1 cells assessed as increase in calcium flux by calcium 5 dye based FLIPR assay; format: cell-based
T4 sequence (P0C0W8 whole entry): T3 sequence (whole entry)

| SMILES | Emax ([1]; filed as agonist) [%] | EC50 ([2]; cho-k1) [nM] | Emax ([3]; filed as agonist) [%] | EC50 ([4]; cho-k1) [nM] | EC50 [2] [nM] | EC50 [4] [nM] | Emax [3] [%] | Emax [1] [%] |
| --- | --- | --- | --- | --- | --- | --- | --- | --- |
| C[C@H](NC(=O)Cn1nc2c(N3CCN(C)CC3)nccn2c1=O)c1ccc(Cl)c(F)c1 | 50 | 1 | > 80 | 1 |  |  |  |  |
| C[C@H](NC(=O)Cn1nc2cnccn2c1=O)c1ccc(Cl)c(F)c1 | > 80 | 1 | > 80 | 1 |  |  |  |  |
| Cc1nccn2c(=O)n(CC(=O)N[C@@H](C)c3ccc(Cl)c(F)c3)nc12 | > 80 |  | > 80 |  | < 1 | < 1 |  |  |
| C[C@H](NC(=O)Cn1nc2ncccn2c1=O)c1ccc(Cl)cc1 | > 80 | 10 |  |  |  | ≥ 100 | 25 |  |
| C[C@H](NC(=O)Cn1nc2ncccn2c1=O)c1ccc(OC(F)F)c(F)c1 | > 80 | 10 |  |  |  | ≥ 100 | 25 |  |
| Cc1cc(C)n2c(=O)n(CC(=O)N[C@@H](C)c3ccc(Cl)cc3)nc2n1 | 50 | 1 |  |  |  | ≥ 100 | < 25 |  |
| O=C(Cn1nc2ccccn2c1=O)NC(c1ccc(Cl)cc1)C1CC1 (stereo not given) | > 80 | 10 |  |  |  |  |  |  |
| C[C@H](NC(=O)Cn1nc2cccc(N3CCOCC3)n2c1=O)c1ccc(Cl)c(F)c1 | > 80 |  | > 80 | 1 | < 1 |  |  |  |
| Cc1ccc([C@H](C)NC(=O)Cn2nc3ncccn3c2=O)cc1 | > 80 | 10 |  |  |  | ≥ 100 | 25 |  |
| Cc1ccc([C@@H](C)NC(=O)Cn2nc3ccccn3c2=O)cc1 | 50 |  |  |  | ≥ 100 |  |  |  |
| C[C@H](NC(=O)Cn1nc2c(OC3CNC3)nccn2c1=O)c1ccc(Cl)c(F)c1 | 50 |  |  |  | ≥ 100 | ≥ 100 | 25 |  |
| Cc1ccc([C@H](C)NC(=O)Cn2nc3cnccn3c2=O)cc1 | > 80 | 10 | 50 |  |  | ≥ 100 |  |  |
| CC(C)Oc1ccc([C@H](C)NC(=O)Cn2nc3ccccn3c2=O)cc1 | 50 | 10 |  |  |  | ≥ 100 | 25 |  |
| CC1COCCN1c1cccc2nn(CC(=O)N[C@@H](C)c3ccc(Cl)c(F)c3)c(=O)n12 (stereo not given in full) | > 80 |  | > 80 | 1 | < 1 |  |  |  |
| C[C@@H](NC(=O)Cn1nc2ccccn2c1=O)c1ccc(OC(F)F)cc1 | 50 |  |  |  | ≥ 100 |  |  |  |
| COc1ccn2c(=O)n(CC(=O)N[C@@H](C)c3ccc(Cl)cc3)nc2n1 | > 80 | 1 | 50 | 1 |  |  |  |  |
| C[C@H](NC(=O)Cn1nc2cccc(N3CCN(C)CC3)n2c1=O)c1ccc(Cl)c(F)c1 | > 80 | 1 | > 80 |  |  | ≥ 100 |  |  |
| C[C@H](NC(=O)Cn1nc2c(N3CCCCC3)nccn2c1=O)c1ccc(Cl)c(F)c1 | > 80 |  | > 80 |  | < 1 | < 1 |  |  |
| C[C@H](NC(=O)Cn1nc2c(I)ccnn2c1=O)c1ccc(Cl)c(F)c1 | > 80 |  | > 80 | 1 | < 1 |  |  |  |
| C[C@H](NC(=O)Cn1nc2ccccn2c1=O)c1ccc(OC(F)F)c(F)c1 | > 80 | 1 | 50 | 1 |  |  |  |  |
| Cc1ccc([C@H](C)NC(=O)Cn2nc3c(NC(=O)OC(C)(C)C)cccn3c2=O)cc1 | 50 | 1 |  |  |  |  |  |  |
| COc1ccn2c(=O)n(CC(=O)N[C@@H](C)c3ccc(C)cc3)nc2n1 | > 80 | 1 | 50 | 1 |  |  |  |  |
| C[C@H](NC(=O)Cn1nc2ccccn2c1=O)c1ccc(OC(F)(F)F)cc1 | > 80 | 1 |  | 1 |  |  | 25 |  |
| C[C@H](NC(=O)Cn1nc2cccnn2c1=O)c1ccc(C2CC2)cc1 | 50 | 10 | 50 | 10 |  |  |  |  |
| CC(NC(=O)Cn1nc2ccccn2c1=O)c1ccc(OC(F)F)cc1 (stereo in doubt) | > 80 | 10 |  |  |  |  |  |  |
| Cc1cnc2nn(CC(=O)N[C@@H](C)c3ccc(Cl)c(F)c3)c(=O)n2c1 | > 80 | 1 | > 80 | 1 |  |  |  |  |
| Cc1ccc([C@H](C)NC(=O)Cn2nc3c(N)cccn3c2=O)cc1 | > 80 | 1 | 50 | 1 |  |  |  |  |

| SMILES | Emax ([1]; filed as agonist) [%] | EC50 ([2]; cho-k1) [nM] | Emax ([3]; filed as agonist) [%] | EC50 ([4]; cho-k1) [nM] | EC50 [2] [nM] | EC50 [4] [nM] | Emax [3] [%] | Emax [1] [%] |
| --- | --- | --- | --- | --- | --- | --- | --- | --- |
| Cc1nccn2c(=O)n(CC(=O)N[C@@H](C)c3ccc(OC(F)(F)F)cc3)nc12 | > 80 |  | > 80 | 1 | < 1 |  |  |  |
| CNc1nccn2c(=O)n(CC(=O)N[C@@H](C)c3ccc(Cl)c(F)c3)nc12 | > 80 |  | > 80 |  | < 1 | < 1 |  |  |
| C[C@H](NC(=O)Cn1nc2cccc(N3CC(O)C3)n2c1=O)c1ccc(OC(F)(F)F)cc1 | 50 |  |  | 1 | < 1 |  | 25 |  |
| C[C@H](NC(=O)Cn1nc2ccc(N3CCCCC3)nn2c1=O)c1ccc(OC(F)(F)F)cc1 |  | 10 |  |  |  | ≥ 100 | < 25 | 25 |
| Cc1cn2c(=O)n(CC(=O)N[C@@H](C)c3ccc(OC(F)(F)F)cc3)nc2cn1 | > 80 | 1 |  |  |  | ≥ 100 | 25 |  |
| C[C@H](NC(=O)Cn1nc2cccnn2c1=O)c1ccc(OC(F)(F)F)cc1 | > 80 | 1 | 50 | 10 |  |  |  |  |
| C[C@H](NC(=O)Cn1nc2cccc(N3CCNCC3)n2c1=O)c1ccc(OC(F)(F)F)cc1 | > 80 | 10 |  |  |  | ≥ 100 | 25 |  |
| Cc1ccc([C@H](C)NC(=O)Cn2nc3cnc(C)cn3c2=O)cc1 | > 80 | 1 | 50 | 1 |  |  |  |  |
| C[C@H](NC(=O)Cn1nc2c(NC3COC3)nccn2c1=O)c1ccc(Cl)c(F)c1 | > 80 | 1 | 50 | 1 |  |  |  |  |
| Cc1ccc([C@H](C)NC(=O)Cn2nc3ccncn3c2=O)cc1 | > 80 | 1 |  |  |  |  |  |  |
| C[C@H](NC(=O)Cn1nc2ncc(F)cn2c1=O)c1ccc(Cl)c(F)c1 | > 80 | 1 | > 80 | 1 |  |  |  |  |
| Cc1ccc([C@H](C)NC(=O)Cn2nc3cccc(Br)n3c2=O)cc1 | > 80 | 1 |  |  |  |  |  |  |
| C[C@H](NC(=O)Cn1nc2ccccn2c1=O)c1ccc(Cl)cc1 | > 80 |  | 50 |  | < 1 | < 1 |  |  |
| Cc1ccc([C@H](C)NC(=O)Cn2nc3ccc(Br)cn3c2=O)cc1 | > 80 | 1 | 50 |  |  | < 1 |  |  |
| C[C@H](NC(=O)Cn1nc2cc(I)ccn2c1=O)c1ccc(Cl)c(F)c1 | > 80 |  | > 80 |  | < 1 | < 1 |  |  |
| C[C@H](NC(=O)Cn1nc2ccccn2c1=O)c1cncc(F)c1 | 50 |  |  |  | ≥ 100 |  |  |  |
| Cc1ccc([C@H](C)NC(=O)C(C)n2nc3ccccn3c2=O)cc1 (stereo in doubt; form 1) [listing 1 of 2 here] | > 80 |  | 50 |  |  |  |  |  |
| C[C@H](NC(=O)Cn1nc2ccccn2c1=O)c1ccc(OC(F)F)cc1 | > 80 | 1 |  | 10 |  |  | 25 |  |
| Cc1ccnc2nn(CC(=O)N[C@@H](C)c3ccc(OC(F)(F)F)cc3)c(=O)n12 | 50 | 1 |  |  |  | ≥ 100 | < 25 |  |
| C[C@H](NC(=O)Cn1nc2cccc(N3CC(F)(F)C3)n2c1=O)c1ccc(Cl)c(F)c1 | > 80 |  | 50 |  | < 1 | < 1 |  |  |
| C[C@H](NC(=O)Cn1nc2ncccn2c1=O)c1ccc(OC(F)(F)F)cc1 | > 80 | 10 |  |  |  | ≥ 100 | < 25 |  |
| C[C@H](NC(=O)Cn1nc2ccc(Cl)nn2c1=O)c1ccc(Cl)c(F)c1 | > 80 |  | > 80 |  | < 1 | < 1 |  |  |
| Cc1cc2nn(CC(=O)N[C@@H](C)c3ccc(Cl)cc3)c(=O)n2c(C)n1 | > 80 |  |  |  | < 1 | ≥ 100 | < 25 |  |
| Cc1ccc([C@H](C)NC(=O)Cn2nc3c(Cl)cccn3c2=O)cc1 | > 80 | 1 | 50 |  |  | < 1 |  |  |
| Cc1ccc([C@H](C)NC(=O)Cn2nc3cc(C)nc(C)n3c2=O)cc1 | > 80 | 1 |  |  |  |  |  |  |
| Cc1ccc([C@H](C)NC(=O)C(C)n2nc3ccccn3c2=O)cc1 (stereo in doubt; form 1) [listing 2 of 2 here] |  | 1 |  | 1 |  |  |  |  |

Source: ChEMBL document CHEMBL4739716, “Gpr139 receptor modulators” (2020)
